Assay results from ChEMBL document CHEMBL6153080, “Synthesis and Chemical Structure of the Cyclic Heptapeptide Stylissamide H” (J Nat Prod, 2025).

Test system: HeLa
Assay: Cytotoxicity against human HeLa cells incubated for 24 hrs by WST-8 assay
Type: functional, cell-based

Row | SMILES | EC50
1 | CC[C@H](C)[C@@H]1NC(=O)[C@@H]2CCCN2C(=O)[C@H](Cc2c[nH]c3ccccc23)NC(=O)[C@@H]2CCCN2C(=O)[C@H](C(C)C)NC(=O)[C@H](Cc2ccccc2)NC(=O)[C@H](CO)NC1=O | 78 µM
2 | CCC(C)[C@@H]1NC(=O)[C@@H]2CCCN2C(=O)[C@H](Cc2c[nH]c3ccccc23)NC(=O)[C@@H]2CCCN2C(=O)[C@@H](C(C)C)NC(=O)[C@H](Cc2ccccc2)NC(=O)[C@H](CO)NC1=O (single isomer, unassigned) | 61 µM
